According to publication PMC11645656, “MRGPRX4 mediates phospho-drug associated pruritus in a humanized mouse model” (Science translational medicine, 2024):
“And” between values parts separate entries of the source, which are not always exact repeats. Equal values may be shown once. Read-outs that look alike come from different tables or passages of the source.

Target: T1, MRGPRX4 (S83) (Homo sapiens, UniProt Q96LA9, L83S)
T1 construct: expressed in transfected cells
Test: EC50 determination, intracellular calcium mobilization in MRGPRX4 stably expressed HEK293 cells (FLIPR Calcium 5, Flexstation-3)
Format: cell-based
Parameters: Fig. 1D dose-response, calcium mobilization response (individual replicate) / calcium mobilization response (Fig. 1D dose-response raw data): unit not given here
Conditions: for calcium mobilization response (Fig. 1D dose-response raw data): individual replicate values; for EC50: read-out: EC50; for Hill coefficient: dose-response curve fitting
Protocol: HEK293 cells and MRGPRX4 stably expressed HEK293 cells were seeded in 100 μl culture media on 96-well plates at a density of 40,000 cells per well and incubated overnight. The next day, the media were replaced with a dye-loading solution from the FLIPR Calcium 5 assay kit (Molecular Devices), diluted in Hank's Balanced Salt Solution (HBSS) with 20 mM HEPES, pH 7.4. After 1 h of incubation at 37°C, cells were allowed to recover for 10 min in the dark at room temperature prior to performing intracellular calcium mobilization assay in a Flexstation-3 instrument with SoftMax®Pro 7.1 software (Molecular Devices). Serial concentrations of tested drugs were prepared in HBSS/HEPES solution at 3X concentration. […] Compounds were tested in triplicates and the signals were averaged. Responses were determined by subtracting the minimum signal (at the baseline before adding the drug) from the maximum signal (obtained after drug stimulation). Four-parameter logistic (4PL) curve fit was used to plot the dose-response curves. […] Both dose-response curve fitting and EC50s calculation are computed with GraphPad Prism software (version: 6.o or above).

[1] = MRGPRX4 stably expressed HEK293 cells, calcium mobilization

T1 sequence (Q96LA9 whole entry L83S): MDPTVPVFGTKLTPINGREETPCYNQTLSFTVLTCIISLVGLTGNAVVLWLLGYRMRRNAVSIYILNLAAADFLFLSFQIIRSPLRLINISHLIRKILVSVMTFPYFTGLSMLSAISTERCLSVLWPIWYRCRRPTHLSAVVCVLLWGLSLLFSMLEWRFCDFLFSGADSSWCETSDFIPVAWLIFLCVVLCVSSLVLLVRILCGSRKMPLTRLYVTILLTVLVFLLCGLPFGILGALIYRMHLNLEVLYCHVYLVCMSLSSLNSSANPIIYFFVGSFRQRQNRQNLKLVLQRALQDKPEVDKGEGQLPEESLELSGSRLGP

| SMILES | calcium mobilization response (Fig. 1D dose-response raw data) (concentration 4.88281e-7 M) | calcium mobilization response (Fig. 1D dose-response raw data) (concentration 9.76563e-7 M) | calcium mobilization response (Fig. 1D dose-response raw data) (concentration 1.95313e-6 M) | calcium mobilization response (Fig. 1D dose-response raw data) (concentration 3.90625e-6 M) | calcium mobilization response (Fig. 1D dose-response raw data) (concentration 7.8125e-6 M) | calcium mobilization response (Fig. 1D dose-response raw data) (concentration 1.5625e-5 M) | calcium mobilization response (Fig. 1D dose-response raw data) (concentration 3.125e-5 M) | calcium mobilization response (Fig. 1D dose-response raw data) (concentration 6.25e-5 M) | calcium mobilization response (Fig. 1D dose-response raw data) (concentration 0.00025 M) | calcium mobilization response (Fig. 1D dose-response raw data) (concentration 0.0005 M) | EC50 [1] [nM] | Hill coefficient (table S1) | also measured |
| --- | --- | --- | --- | --- | --- | --- | --- | --- | --- | --- | --- | --- | --- |
| C[C@@H]1C[C@H]2[C@@H]3C[C@@H](O)C4=CC(=O)C=C[C@]4(C)[C@@]3(F)[C@@H](O)C[C@]2(C)[C@@]1(O)C(=O)CO [6b-hydroxy Dexamethasone] | – | – | – | – | – | – | – | – | – | – | – | – | Fig. 1D dose-response, calcium mobilization response (individual replicate) (Concentration 9.76563e-7 M): -11.185 and -2.950 and -9.064 and -1.271 and -4.466; Fig. 1D dose-response, calcium mobilization response (individual replicate) (Concentration 1.95313e-6 M): -4.343 and -9.147 and -5.890 and -0.806 and -7.669; Fig. 1D dose-response, calcium mobilization response (individual replicate) (Concentration 3.90625e-6 M): -10.884 and -6.013 and -8.580 and -8.133 and -5.676; Fig. 1D dose-response, calcium mobilization response (individual replicate) (Concentration 7.8125e-6 M): -1.007 and -6.768 and -0.871 and -6.992 and -1.487; Fig. 1D dose-response, calcium mobilization response (individual replicate) (Concentration 1.5625e-5 M): -3.580 and -12.887 and -7.336 and -12.885 and -3.031; Fig. 1D dose-response, calcium mobilization response (individual replicate) (Concentration 3.125e-5 M): -6.945 and -4.243 and -10.704 and -6.397 and -13.033; Fig. 1D dose-response, calcium mobilization response (individual replicate) (Concentration 6.25e-5 M): -3.167 and -3.420 and -21.978 and -8.518 and -4.898; Fig. 1D dose-response, calcium mobilization response (individual replicate) (Concentration 0.00025 M): -19.291 and -10.466 and -0.309 and -10.053 and -7.780; Fig. 1D dose-response, calcium mobilization response (individual replicate) (Concentration 0.0005 M): -6.623 and -13.594 and -13.062 and -8.352 and -18.691; Fig. 1D dose-response, calcium mobilization response (individual replicate) (Concentration 0.001 M): -11.685 and -12.391 and -8.163 and -15.688 and -9.331 |
| CC[C@]1(c2ccccc2)NC(=O)N(C)C1=O [(R)-mephenytoin] | -28.494 and -0.685 and -28.419 and -1.368 and -39.430 and -16.800 and -4.015 and -27.858 and -25.726 | -7.288 and -19.217 and -18.327 and -17.700 and -9.222 and -17.910 and -11.024 and -17.403 and -16.404 | -4.806 and -21.809 and -22.673 and -18.368 and -20.701 and -10.218 and -45.398 and -2.556 and -1.333 | -11.313 and -5.626 and -2.810 and -4.150 and -5.388 and -10.211 and -8.758 and -3.374 and -7.616 | -13.282 and -38.673 and -86.390 and -55.539 and -30.274 and -52.531 and -40.546 and -63.168 and -34.632 | -73.173 and -60.784 and -5.824 and -52.600 and -25.248 and -61.934 and -57.691 and -23.069 and -59.022 | -77.603 and -4.145 and -51.921 and -55.448 and -9.903 and -68.319 and -36.832 and -68.498 and -28.339 | -22.173 and -48.350 and -3.409 and -11.978 and -30.555 and -31.399 and -12.734 and -38.906 and -22.292 | -56.927 and -11.154 and -10.026 and -28.148 and -45.428 and -4.530 and -28.870 and -12.606 and -36.630 | -44.336 and -37.065 and -31.962 and -46.134 and -28.961 and -38.269 and -19.967 and -86.384 and -7.013 | – | – | – |
| CC[C@@]1(c2ccccc2)NC(=O)N(C)C1=O [(S)-mephenytoin] | -20.370 and -28.895 and -20.737 and -16.113 and -11.794 and -17.288 and -8.111 and -30.820 and -18.667 | -14.910 and -10.110 and -14.446 and -15.834 and -19.023 and -15.341 and -3.659 and -28.710 and -12.463 | -18.478 and -17.267 and -18.784 and -17.855 and -11.934 and -14.257 and -17.051 and -23.967 and -8.270 | -5.757 and -11.730 and -8.574 and 8.283 and -10.074 and -11.646 and -8.442 and -1.458 and -9.849 | 26.923 and 9.795 and -10.857 and -10.275 and -14.955 and -11.140 and -1.065 and -2.234 and -1.955 | 9.387 and -3.753 and 17.104 and -13.591 and -6.859 and -9.499 and -1.610 and -1.506 and -0.489 | 7.318 and 16.609 and 24.858 and -11.449 and -15.821 and -20.419 and 0.176 and 0.206 and 0.166 | 20.640 and 67.105 and 19.512 and -1.060 and 14.827 and -6.587 and 28.221 and 5.104 and 23.894 | 56.723 and 43.018 and 21.772 and 14.354 and 43.622 and 16.555 and 1.733 and 79.374 and 16.915 | -10.031 and 14.167 and 0.209 and 8.392 and 6.582 and -2.785 and 5.320 and 0.368 and 2.580 | – | – | – |
| CNC[C@H](O)[C@@H](O)[C@H](O)[C@H](O)CO.CNC[C@H](O)[C@@H](O)[C@H](O)[C@H](O)CO.C[C@@H](O[C@H]1OCCN(Cc2nn(P(=O)(O)O)c(=O)[nH]2)[C@H]1c1ccc(F)cc1)c1cc(C(F)(F)F)cc(C(F)(F)F)c1 [Fosaprepitant dimeglumine] | – | – | – | – | – | – | – | – | – | – | 7000 | 3.670 | – |
| C[C@]12CCC(=O)C=C1CC[C@@H]1[C@@H]2[C@@H](O)C[C@@]2(C)[C@H]1CC[C@]2(O)C(=O)COC(=O)CCC(=O)O [Hydrocortisone 21-hemisuccinate] | – | – | – | – | – | – | – | – | – | – | – | – | EC50 (table S1): > 500000 nM |
| C[C@]12CCC(=O)C=C1CC[C@@H]1[C@@H]2[C@@H](O)C[C@@]2(C)[C@H]1CC[C@]2(O)C(=O)COP(=O)([O-])[O-].[Na+].[Na+] [Hydrocortisone sodium phosphate] | – | – | – | – | – | – | – | – | – | – | 328 | 1.411 | – |
| O=C1NC(=O)C(c2ccccc2)(c2ccc(O)cc2)N1 (stereo not shown) [Hydroxyphenytoin] | -38.335 and -44.136 and -38.604 and -53.703 and -53.375 | -21.881 and -18.856 and -41.417 and -3.943 and -41.401 | -33.904 and -36.161 and -55.798 and -55.451 and -16.637 | -41.290 and -41.879 and -47.340 and -95.401 and -28.834 | -43.390 and -45.131 and -40.251 and -36.055 and -69.327 | -49.874 and -56.147 and -54.231 and -13.701 and -87.936 | -55.112 and -52.780 and -54.634 and -28.441 and -50.624 | -46.992 and -52.460 and -54.562 and -23.886 and -26.540 | -50.524 and -46.583 and -49.203 and -70.603 and -7.273 | -43.005 and -35.783 and -32.491 and -3.926 and -40.291 | – | – | Fig. 1D dose-response, calcium mobilization response (individual replicate) (Concentration 9.76563e-7 M): -13.997 and -18.908 and -71.107 and -31.060; Fig. 1D dose-response, calcium mobilization response (individual replicate) (Concentration 1.95313e-6 M): -36.810 and -38.751 and -15.180 and -28.223; Fig. 1D dose-response, calcium mobilization response (individual replicate) (Concentration 3.90625e-6 M): -53.775 and -34.726 and -87.092 and -4.044; Fig. 1D dose-response, calcium mobilization response (individual replicate) (Concentration 7.8125e-6 M): -6.273 and -4.175 and -11.050 and -115.284; Fig. 1D dose-response, calcium mobilization response (individual replicate) (Concentration 1.5625e-5 M): -23.391 and -58.915 and -49.315 and -20.542; Fig. 1D dose-response, calcium mobilization response (individual replicate) (Concentration 3.125e-5 M): -58.615 and -86.247 and -12.733 and -61.272; Fig. 1D dose-response, calcium mobilization response (individual replicate) (Concentration 6.25e-5 M): -83.462 and -33.574 and -53.783 and -75.169; Fig. 1D dose-response, calcium mobilization response (individual replicate) (Concentration 0.00025 M): -7.298 and -62.458 and -53.853 and -44.871; Fig. 1D dose-response, calcium mobilization response (individual replicate) (Concentration 0.0005 M): -68.434 and -44.648 and -66.219 and -35.443; Fig. 1D dose-response, calcium mobilization response (individual replicate) (Concentration 0.001 M): -67.062 and -39.432 and -24.454 and -47.392 |
| CCC1(c2ccccc2)NC(=O)NC1=O (stereo not shown) [Phenylethylhydantoin] | -36.084 and -46.830 and -25.168 and -25.995 and -41.232 and -40.854 and -21.141 and -50.216 and -36.724 | -38.906 and -40.253 and -36.747 and -35.963 and -45.530 and -34.413 and -90.977 and -3.770 and -21.159 | -39.850 and -47.267 and -41.649 and -23.282 and -47.762 and -57.722 and -64.532 and -47.904 and -16.330 | -41.691 and -47.727 and -40.039 and -70.885 and -55.070 and -3.502 and -50.619 and -10.963 and -67.875 | -54.750 and -48.340 and -51.910 and -49.343 and -57.168 and -48.489 and -88.910 and -37.952 and -28.139 | -44.078 and -57.965 and -55.228 and -49.591 and -44.073 and -63.607 and -50.842 and -52.493 and -53.936 | -43.665 and -49.381 and -54.677 and -65.107 and -76.615 and -6.000 and -68.649 and -47.158 and -31.916 | -55.764 and -53.161 and -56.227 and -7.830 and -129.161 and -28.161 and -12.225 and -71.995 and -80.931 | -45.731 and -49.520 and -42.661 and -67.761 and -17.367 and -52.783 and -55.357 and -16.011 and -66.544 | -37.983 and -36.120 and -36.080 and -77.623 and -5.808 and -26.753 and -42.653 and -37.379 and -30.151 | – | – | – |
| C[C@]12C=CC(=O)C=C1CC[C@@H]1[C@@H]2[C@@H](O)C[C@@]2(C)[C@H]1CC[C@]2(O)C(=O)COP(=O)(O)O [Prednisolone phosphate] | – | – | – | – | – | – | – | – | – | – | 267 | 0.753 | – |
